The values that follow come from US10731221B2, “Diagnosing IDH1 related subgroups and treatment of cancer” (Dignity Health, priority 2009, dated 2020).

For experiment [1], the system named is GBM, AKT SL (secondary-like) subtype. Put plainly: Kaplan Meier survival of TCGA GBM patients receiving or not receiving BCNU and/or CCNU, by AKT subgroup. Particulars: for survival advantage: Secondary-Like patients, CCNU/BCNU; for median survival: TCGA SL patients treated with BCNU or CCNU (vs. other treatments), p=0.03 after correcting for age, log rank; for sensitivity of patients in the SL subgroup: TCGA SL subgroup. The class given is in vivo, human. From the text: FIG. 5 depicts, in accordance with various embodiments of the invention, evidence that SL subtype (AKT subgroup 5) patients are sensitive to alkylating agents BCNU and CCNU. Kaplan Meier survival curves for TCGA patients receiving (solid line) or not receiving (dashed line) alkylating agent (BCNU and/or CCNU) by subgroup. p=0.03 after correcting for age (SL subtype; log rank). n=6 and 16 for SL patients receiving or not receiving BCNU/CCNU, respectively.
The discovery dataset (GBM195) consisted of 181 GBM (WHO grade IV astrocytoma; (159 primary and 22 recurrent) from 3 datasets, [4], [21] and 14 non-neoplastic samples from 2 sources: (1) six samples from patients undergoing temporal lobe epilepsy surgery and (2) eight samples from autopsy specimens of cerebral cortex from donors with no history of neurological disorders obtained from the National Neurological Research Brain Bank (Los Angeles, Calif.). Two datasets are in GEO (GSE4271, GSE4412) and the third has been submitted. Table 1 lists GEO ID's and clinical information for GBM195 tumors. Tissue collection and processing, pathological review, and microarray analysis for the discovery dataset (GBM195) has been described elsewhere ([3] Nigro et al. 2005, [4] Phillips et a. 2006, and [21] Freije et al. 2004, which are incorporated herein by reference in their entirety as though fully set forth.) The validation dataset consisted of 583 samples; 573 GBM (16 recurrent and 3 secondary) and 10 non-neoplastic samples from The Cancer Genome Atlas (TCGA). Samples were collected and processed as described ([5] Atlas TCG 2008, which is incorporated herein by reference in its entirety as though fully set forth.). IRB or Committee on Human Research approval was obtained for samples used in the discovery and validation datasets as described, [4], [10], [21].
Differences between one subgroup and the rest were assessed using the F test for […] and the likelihood ratio test for categorical variables. The Bonferroni method was applied to correct for multiple hypotheses. The inventors applied the Tukey HSD test to find pairwise differences between groups and correct for multiple comparisons. Survival differences between subgroups were assessed using the Chi-squared test. Age was added to build a multivariate Cox model. For survival comparisons of BCNU/CCNU treatment between subgroups there were not enough observations to correct for age. After deleting all observations younger than 45, survival was no longer related to age. Significance was then determined using log rank. The Pearson goodness-of-fit test was used to assess the null hypothesis that proportions of G-CIMP tumors by subgroup and recurrent tumors by subgroup are equal to the proportions for all tumors by subgroup. P-values for these tests were calculated by Monte Carlo simulation since the counts of tumors by subgroup were too small to apply the large sample chi-square approximation.
Since AKT influences response to chemotherapy, while not wishing to be bound by any theory, the inventors believe AKT subgroups are predictive markers. Indeed, TCGA SL patients treated with BCNU or CCNU had longer median survival than those receiving other treatments (FIG. 5; median survival=5.8 vs. 1.05 years; p=0.03 after correcting for age; log rank). […] This finding indicates patients in the SL subgroup are sensitive to BCNU and CCNU.

Experiment [2] concerns Glioblastoma AKT subgroups (Mesenchymal, Secondary-Like). Put plainly: Kaplan Meier survival of TCGA patients receiving more vs. less temozolomide, by AKT subgroup. The class given is in vivo, human. The source says: FIG. 17 depicts, in accordance with various embodiments of the invention, evidence that Mesenchymal patients benefit from temozolomide. Kaplan Meier survival curves were plotted within each subgroup for TCGA patients receiving more (≥3 cycles; red) vs. less (<3 cycles; black) temozolomide. […] Median survival was 0.6 years greater for Mesenchymal patients treated with more temozolomide (1.8 years) vs. less temozolomide (1.2 years); p=0.01 log rank; not age adjusted.
We plotted Kaplan Meier survival curves for patients treated with more vs. less TMZ in each AKT subgroup (FIG. 17). Since most TCGA patients received some TMZ, it was not possible to plot survival curves for patients treated with and without the drug. Instead, we compared survival in 2 treatment arms, those receiving more (≥3) vs. less (<3) cycles.
There was a tendency for patients who received more TMZ to not have received a nitrosourea. […] Without wishing to be bound by any particular theory, this may underlie the worse survival of patients receiving more TMZ in the Secondary-Like subgroup.

On to `O=NN(CCCl)C(=O)NCCCl` [BCNU, carmustine], for which, in experiment [1], the survival advantage is given as 4.5 year, the median survival was 5.8 years and the “sensitivity of patients in the SL subgroup” value is on record as “sensitive”.

On to `O=NN(CCCl)C(=O)NC1CCCCC1` [CCNU, lomustine], for which, in experiment [1], the survival advantage was determined as 4.5 year, the median survival was found to be 5.8 years and the “sensitivity of patients in the SL subgroup” value is recorded as “sensitive”.

Turning to `Cn1nnc2c(C(N)=O)ncn2c1=O` [temozolomide], the median survival in experiment [2] (less temozolomide (<3 cycles)) is given as 1.2 years; in experiment [2] (more temozolomide (≥3 cycles), p=0.01 log rank, not age adjusted) it was 1.8 years. In addition, in experiment [2] (≥3 vs. <3 cycles), the “Median survival difference, more vs. less temozolomide” value turned out to be 0.6 years.
